{"source": "patent US6177426A", "about": "“Morpholino-N-ethyl ester prodrugs of indole sPLA2 inhibitors” (Eli Lilly and Company, priority 2000, dated 2001)", "key": {"[1]": {"test": "Rat plasma pharmacokinetics study, oral bioavailability", "format": "in vivo, Rat (Fischer 344)", "conditions": "compared to other ester prodrugs", "experimental": "The bioavailability of the compound of the invention, ((3-(2-Amino-1,2-dioxoethyl)-1-((1,1'-biphenyl)-3-ylmethyl)-2-methyl-1H-indol-4-yl)oxy)acetic acid morpholino-N-ethyl ester, was determined using a Rat Study Protocol Plasma\nThe purpose of this assay was to evaluate and compare the oral delivery for selected sPLA2 inhibitors.\nThe amount of sPLA2 inhibitor was corrected for free acid equivalents.\nSuspension of sPLA2 inhibitor in 10% Acacia, prepared just prior to dose administration\nDose: 10 mg/kg (of the parent acid)\nBlood samples (0.8 ml) were obtained at the following times: 0.5, 1, 2, 4, 8 and 24 hours (2 rats/timepoint)\nPlasma was assayed by HPLC to measure concentrations of the different sPLA2 inhibitors (measured as free acids). Cmax (maximal plasma concentrations), and AUC values were determined from the mean plasma concentration-time profiles."}, "[2]": {"molecular_target": "recombinant human secreted phospholipase A2", "conditions": "data from U.S. Pat. No. 5,654,326, cited from earlier work"}, "[3]": {"molecular_target": "recombinant human secreted phospholipase A2", "conditions": "guinea pig lung tissue; sPLA2 10 ug/ml; data from U.S. Pat. No. 5,654,326; read-out: Tissue test secreted PLA2 Apparent KB; cited from earlier work"}}}
{"molecule": "Cc1c(C(=O)C(N)=O)c2c(OCC(=O)OCCN3CCOCC3)cccc2n1Cc1cccc(-c2ccccc2)c1", "note": "[formula (I)]", "values": [{"measurement": "oral bioavailability compared to other esters (in words)", "setting": "[1]", "value": "highly bioavailable upon oral administration compared to other common ester type prodrugs"}]}
{"molecule": "Cc1c(C(=O)C(N)=O)c2c(OCC(=O)O)cccc2n1Cc1cccc(-c2ccccc2)c1", "note": "[formula (II)]", "values": [{"measurement": "IC50", "setting": "[2]; chromogenic assay, 3-4 tests, read-out: Inhibition of human secreted PLA2 IC50 ± mean deviation (3-4 tests)", "value": "4.33 ± 2.31", "unit": "nM"}, {"measurement": "inhibiting sPLA2 (conclusion in words)", "setting": "[2]; conclusion of Assay 1", "value": "highly active in inhibiting sPLA2"}, {"measurement": "Kb", "setting": "[3]", "value": "57 ± 11", "unit": "nM"}]}
{"molecule": "Cc1c(C(=O)C(N)=O)c2c(OCC(=O)OCCN3CCOCC3)cccc2n1Cc1cccc(-c2ccccc2)c1", "note": "[Compound of formula (I), ((3-(2-amino-1,2-dioxoethyl)-1-((1,1'-biphenyl)-3-ylmethyl)-2-methyl-1H-indol-4-yl)oxy)acetic acid morpholino-N-ethyl ester]", "values": [{"measurement": "oral bioavailability compared to other esters (in words)", "setting": "[1]; listed as morpholino-N-ethyl ester", "value": "unexpectedly more bioavailable than other esters"}]}
